The target of this data set is TcdB1 (Clostridioides difficile, UniProt P18177).

Data on one molecule can be found in US10709758B2 (priority 2015, dated 2020).

TcdB1, sequence (P18177 2-2366 limits assumed): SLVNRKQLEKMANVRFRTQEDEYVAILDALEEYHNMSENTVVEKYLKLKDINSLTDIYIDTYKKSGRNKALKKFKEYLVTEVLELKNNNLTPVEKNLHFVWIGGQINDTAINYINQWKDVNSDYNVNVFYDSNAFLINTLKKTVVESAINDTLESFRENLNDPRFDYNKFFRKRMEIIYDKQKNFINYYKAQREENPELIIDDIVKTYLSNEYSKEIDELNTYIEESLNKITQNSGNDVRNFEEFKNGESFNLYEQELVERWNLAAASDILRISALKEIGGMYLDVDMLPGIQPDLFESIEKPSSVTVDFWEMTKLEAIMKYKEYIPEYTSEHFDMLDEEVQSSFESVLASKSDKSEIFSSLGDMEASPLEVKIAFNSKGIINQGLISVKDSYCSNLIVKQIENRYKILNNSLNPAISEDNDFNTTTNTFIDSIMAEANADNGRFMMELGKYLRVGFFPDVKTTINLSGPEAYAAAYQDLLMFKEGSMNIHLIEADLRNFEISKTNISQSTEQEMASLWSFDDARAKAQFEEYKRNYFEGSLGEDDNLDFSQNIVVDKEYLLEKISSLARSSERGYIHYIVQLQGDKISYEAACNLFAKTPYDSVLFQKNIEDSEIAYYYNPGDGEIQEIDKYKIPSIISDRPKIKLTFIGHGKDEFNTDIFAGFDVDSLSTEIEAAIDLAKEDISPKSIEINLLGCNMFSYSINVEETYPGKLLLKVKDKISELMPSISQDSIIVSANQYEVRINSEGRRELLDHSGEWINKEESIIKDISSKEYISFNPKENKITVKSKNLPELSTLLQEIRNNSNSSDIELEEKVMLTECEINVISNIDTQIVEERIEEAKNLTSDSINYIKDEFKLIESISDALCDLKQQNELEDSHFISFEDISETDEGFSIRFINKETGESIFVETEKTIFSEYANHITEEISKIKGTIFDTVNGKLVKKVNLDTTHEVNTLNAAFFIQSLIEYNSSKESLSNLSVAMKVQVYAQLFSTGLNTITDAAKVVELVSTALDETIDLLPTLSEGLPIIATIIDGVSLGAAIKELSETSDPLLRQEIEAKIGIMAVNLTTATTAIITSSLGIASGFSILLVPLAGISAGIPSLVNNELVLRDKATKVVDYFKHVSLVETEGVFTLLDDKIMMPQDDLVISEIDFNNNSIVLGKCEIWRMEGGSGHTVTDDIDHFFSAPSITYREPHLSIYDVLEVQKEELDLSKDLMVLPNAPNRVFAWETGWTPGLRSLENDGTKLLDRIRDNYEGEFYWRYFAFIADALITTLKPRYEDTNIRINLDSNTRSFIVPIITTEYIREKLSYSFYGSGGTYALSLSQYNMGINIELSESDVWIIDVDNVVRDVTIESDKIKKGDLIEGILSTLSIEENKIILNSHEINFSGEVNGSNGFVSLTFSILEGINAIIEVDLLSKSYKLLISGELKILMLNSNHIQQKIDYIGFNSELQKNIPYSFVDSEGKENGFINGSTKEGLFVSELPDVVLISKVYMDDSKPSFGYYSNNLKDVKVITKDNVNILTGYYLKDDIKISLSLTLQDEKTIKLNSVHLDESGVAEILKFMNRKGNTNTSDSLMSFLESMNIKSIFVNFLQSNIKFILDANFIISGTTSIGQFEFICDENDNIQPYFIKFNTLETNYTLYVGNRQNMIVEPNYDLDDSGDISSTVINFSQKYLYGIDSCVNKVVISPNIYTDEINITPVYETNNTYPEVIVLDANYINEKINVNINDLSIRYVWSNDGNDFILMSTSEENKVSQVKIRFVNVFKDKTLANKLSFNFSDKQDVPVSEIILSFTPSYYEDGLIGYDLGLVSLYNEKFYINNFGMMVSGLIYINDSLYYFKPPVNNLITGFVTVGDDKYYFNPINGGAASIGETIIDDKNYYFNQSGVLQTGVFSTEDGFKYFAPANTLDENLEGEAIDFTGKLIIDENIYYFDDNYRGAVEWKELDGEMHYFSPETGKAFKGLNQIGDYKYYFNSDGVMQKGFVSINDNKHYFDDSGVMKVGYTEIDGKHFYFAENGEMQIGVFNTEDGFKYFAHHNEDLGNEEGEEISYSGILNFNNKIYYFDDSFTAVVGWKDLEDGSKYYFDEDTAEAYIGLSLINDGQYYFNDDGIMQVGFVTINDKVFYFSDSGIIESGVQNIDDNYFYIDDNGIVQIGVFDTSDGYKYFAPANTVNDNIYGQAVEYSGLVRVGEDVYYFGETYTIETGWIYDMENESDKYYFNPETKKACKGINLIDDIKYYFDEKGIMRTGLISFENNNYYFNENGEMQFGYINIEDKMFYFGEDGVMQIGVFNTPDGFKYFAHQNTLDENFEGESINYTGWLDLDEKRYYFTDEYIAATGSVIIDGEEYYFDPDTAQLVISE

For the molecule `CC[C@H](C)[C@H](NC(=O)[C@H](CCCCN)NC(=O)[C@H](CC(=O)O)NC(=O)[C@H](CO)NC(=O)[C@@H](NC(=O)[C@@H](NC(=O)[C@H](CC(N)=O)NC(=O)CNC(=O)[C@H](CCCCN)NC(=O)[C@H](Cc1ccccc1)NC(=O)[C@@H](NC(=O)[C@@H](N)CC(N)=O)C(C)C)[C@@H](C)O)[C@@H](C)CC)C(=O)N[C@@H](CO)C(=O)N[C@@H](Cc1ccccc1)C(=O)N[C@@H](CC(N)=O)C(=O)N[C@@H](Cc1ccccc1)C(=O)N[C@@H](CO)C(=O)N[C@@H](CC(=O)O)C(=O)N[C@@H](CCCCN)C(=O)O` [PepB2], the “increase of the 50% toxic concentration (TC50) of TcdB1” value was found to be 500 fold and the “protection from cytotoxicity of TcdB1 over a range of toxin concentrations” value was “protects CHO-K1 cells”.
